Reference: patent US9879036B2, “Mitochondrial aldehyde dehydrogenase-2 binding compounds and methods of use thereof” (Aviv Therapeutics, Inc., priority 2014, dated 2018)

Experiments:
PAD wild type mice = experiment: Limb ischemia model for peripheral arterial disease (PAD); format: in vivo; conditions: osmotic pump for 28 days
Description: Mice are anesthetized and hair is entirely removed from the surgical area. A longitudinal incision is inguinal crease along the femoral vessels and the connective tissue sheet between the femoral artery and vein is carefully dissected. An opening between the femoral artery and vein is made and the femoral artery is occluded using triple surgical knots. The incision is then closed.
The animals under permanent femoral artery occlusion are treated with compounds of formula (I) and the effects of the compounds on functional capacity is assessed in mice using treadmill exercise in a metabolic chamber.
The limb ischemia-murine animal model was utilized as a surrogated model for peripheral arterial disease as described in Nature Protocols, 4, 1737-1748 (2009). (Limbourg, A., et. als., Evaluation of postnatal arteriogenesis and angiogenesis in a mouse model of hind-limb ischemia, Nature Protocols, 4, 1737-1748 (2009)). All experiments were run according to national and institutional regulations concerning the use of animals for research purposes and permissions to carry out experiments have to be obtained.
(§1) The animals, WT mice age 18-22 weeks, were anesthetized with an intraperitoneal (IP) injection of esketamine (100 mg/ml) dose 80-100 mg/kg and xylazine (20 mg/ml) dose 4-6 mg/kg. Hair was entirely removed from the surgical area and a longitudinal incision was made beginning at the inguinal crease along the femoral vessels. The connective tissue sheet between the femoral artery and vein was then carefully dissected and an opening between the femoral artery and vein was made. Artery ligation thread was then used to occlude the femoral artery using triple surgical knots. The incision was then closed and the animals were administered a single dose of buprenorphine (0.1 mg/kg) subcutaneously to control ischemic pain.
(§2) The animals under permanent femoral artery occlusion at day zero, were treated with ALDH2 activators, Alda-1 and AC112, via osmotic pump for 28 days. The effects of the compounds of the present invention on functional capacity were assessed in mice using treadmill exercise in a metabolic chamber.

ALDH2 [1] = target: T1, ALDH2 (Mus musculus, UniProt P47738); experiment: ALDH2 activity of muscle tissue in PAD mice; format: in vivo; conditions: osmotic pump for 28 days
T1 construct: In this study we have also determined the ALDH2 activity in muscle tissue; from tissue; host or cells: skeletal muscle of WT mice with femoral artery occlusion
T1 sequence (P47738 20-519): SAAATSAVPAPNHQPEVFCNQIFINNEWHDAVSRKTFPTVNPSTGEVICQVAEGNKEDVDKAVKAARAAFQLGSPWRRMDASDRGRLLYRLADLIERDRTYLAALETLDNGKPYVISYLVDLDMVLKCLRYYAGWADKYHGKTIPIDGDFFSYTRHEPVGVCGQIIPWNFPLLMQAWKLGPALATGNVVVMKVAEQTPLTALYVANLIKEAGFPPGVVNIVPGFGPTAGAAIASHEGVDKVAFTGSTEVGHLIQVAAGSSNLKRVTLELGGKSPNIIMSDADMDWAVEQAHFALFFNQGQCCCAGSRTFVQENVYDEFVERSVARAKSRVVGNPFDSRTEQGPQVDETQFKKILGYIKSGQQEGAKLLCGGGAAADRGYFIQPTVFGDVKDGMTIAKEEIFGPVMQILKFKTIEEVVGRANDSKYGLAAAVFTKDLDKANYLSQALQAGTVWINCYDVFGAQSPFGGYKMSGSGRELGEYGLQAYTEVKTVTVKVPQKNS
Description: as §1, §2
In this study we have also determined the ALDH2 activity in muscle tissue.

ALDH2 [2] = target: T2, ALDH2 (Homo sapiens, UniProt P05091); experiment: ALDH2 activity with 20 μM of the compound (Table 3); format: biochemical; conditions: 20 μM compound
T2 construct: His-tag (N); made in house; host or cells: E. coli BL21
T2 sequence (P05091 18-517): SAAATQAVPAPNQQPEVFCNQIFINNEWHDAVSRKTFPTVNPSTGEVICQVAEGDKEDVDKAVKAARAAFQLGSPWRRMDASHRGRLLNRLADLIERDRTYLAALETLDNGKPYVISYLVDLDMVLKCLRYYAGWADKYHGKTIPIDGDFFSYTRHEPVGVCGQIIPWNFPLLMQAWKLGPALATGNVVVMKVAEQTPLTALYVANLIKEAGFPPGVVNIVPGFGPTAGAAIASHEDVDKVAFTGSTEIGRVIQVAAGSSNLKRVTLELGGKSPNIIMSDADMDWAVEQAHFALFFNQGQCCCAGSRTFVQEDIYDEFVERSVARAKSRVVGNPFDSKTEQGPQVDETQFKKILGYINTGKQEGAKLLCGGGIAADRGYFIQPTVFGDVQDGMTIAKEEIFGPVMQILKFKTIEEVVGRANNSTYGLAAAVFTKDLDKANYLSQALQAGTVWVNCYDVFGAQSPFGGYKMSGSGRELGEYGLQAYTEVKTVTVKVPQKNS
In short: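 Compound was tested at 20 μM. ALDH2 oxidation of acetaldehyde with NAD+ cofactor was followed spectrophotometrically as NADH accumulation at 340 nm. Activity is expressed relative to the enzyme's baseline activity, taken as 100%.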

**Q.** What does the source list for `COc1ccc(CNC(=O)c2cc(-c3ncccc3CO)ccc2OCC(C)C)cc1F` [AC112]?
**A.** pain threshold (PAD wild type mice): improve pain threshold; skeletal muscle resistance to fatigue (contractility measured ex vivo) (PAD wild type mice): improve the skeletal muscle resistance to fatigue; PAD-induced skeletal muscle atrophy (PAD wild type mice; WT mice): minimizes PAD-induced skeletal muscle atrophy; running distance (PAD wild type mice; treadmill): improve; running time (PAD wild type mice; treadmill): improve; ALDH2 activity of muscle tissue (ALDH2 [1]): increased the ALDH2 activity of muscle tissue; activity at 20 µM (ALDH2 [2]): > 250%
